Test results: US6384056B1, “Heterocyclic thioesters or ketones for vision and memory disorders” (GPI NIL Holdings, Inc., priority 1998, dated 2002)

How the values were obtained:
[1] = molecular target: FKBP12 (Homo sapiens, UniProt P62942); assay: Ki test procedure: inhibition of peptidyl-prolyl isomerase (rotamase) activity, chymotrypsin-coupled assay; type: biochemical; details: apparent Ki
Excerpt: The inhibition of the prolyl peptidyl cis-trans isomerase activity of FKBP may be measured as an indicator of this affinity.
Inhibition of the peptidyl-prolyl isomerase (rotamase) activity of the compounds used in the inventive methods and pharmaceutical compositions can be evaluated by known methods described in the literature (Harding et al., Nature, 1989, 341:758-760; Holt et al. J. Am. Chem. Soc., 115:9923-9938).
The cis-trans isomerization of an alanine-proline bond in a model substrate, N-succinyl-Ala-Ala-Pro-Phe-p-nitroanilide, is monitored spectrophotometrically in a chymotrypsin-coupled assay, which releases para-nitroanilide from the trans form of the substrate. The inhibition of this reaction caused by the addition of different concentrations of inhibitor is determined, and the data is analyzed as a change in first-order rate constant as a function of inhibitor concentration to yield the apparent Ki values.
In a plastic cuvette are added […] of ice cold assay buffer (25 mM HEPES, pH 7.8, 100 mM NaCl), […] of FKBP (2.5 mM in 10 mM Tris-Cl pH 7.5, 100 mM NaCl, 1 mM dithiothreitol), […] of chymotrypsin (50 mg/ml in 1 mM HCl) and […] of test compound at various concentrations in dimethyl sulfoxide. The reaction is initiated by the addition of 5 mL of substrate (succinyl-Ala-Phe-Pro-Phe-para-nitroanilide 5 mg/mL in 2.35 mM LiCl in trifluoroethanol).
The absorbance at 390 nm versus time is monitored for 90 seconds using a spectrophotometer and the rate constants are determined from the absorbance versus time data files.

[2] = system: retinal ganglion cell axons; assay: protection of retinal ganglion cell axons from degeneration 14 days after optic nerve transection (RT97); type: in vivo; details: ± SEM
Excerpt: Efficacy of represetative compounds from different immunophilin ligand series in protecting retinal ganglion cell axons from degeneration following optic nerve transection set forth in Table 9.
Efficacy of representative compounds from different immunophilin ligand series in protecting retinal ganglion cell axons from degeneration following optic nerve transection

[3] = Clearance; type: in vitro ADME; details: Table 9 comments

Chain of FKBP12 (P62942 whole entry, species assumed): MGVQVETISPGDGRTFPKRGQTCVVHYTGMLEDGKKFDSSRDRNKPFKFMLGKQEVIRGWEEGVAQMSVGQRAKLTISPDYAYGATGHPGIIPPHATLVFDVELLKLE

Molecule	Ki [1]	RT 97 + RGC axon density 14 days after ON transaction (36 ON axons rescued) [2]	Clearance [3]
1,5-Diphenyl-3-pentyl 1-(3,3-dimethyl-1,2-dioxopentyl)-2-piperidinecarbothioate [Compound 40]	1230 nM		
2-Phenyl-1-ethyl 1-(2-phenyl-1,2-dioxoethyl)-2-piperidinecarbothioate [Compound 14]	313 nM		
2-Phenyl-1-ethyl 1-(3,3-dimethyl-1,2-dioxopentyl)-2-piperidinecarbothioate [Compound 10]	12 nM		
2-Phenyl-1-ethyl (2S)-1-(1-cyclopentyl-1,2-dioxoethyl)-2-pyrrolidinecarbothioate [Compound 28]	108 nM		
2-Phenyl-1-ethyl (2S)-1-(2-cyclohexyl-1,2-dioxoethyl)-2-pyrrolidinecarbothioate [Compound 12]	442 nM		
3-(1-Naphthyl)-1-propyl 1-(3,3-dimethyl-2-oxopentanoyl)-2-piperidinecarbothioate [Compound 53]	261 nM		
3-(1-Naphthyl)-1-propyl (2S)-1-(3,3-dimethyl-2-oxopentanoyl)-2-pyrrolidinecarbothioate [Compound 47]	21 nM		
3-(2-Chlorophenyl)propyl (2S)-1-(3,3-dimethyl-2-oxopentanoyl)-2-pyrrolidinecarbothioate [Compound 61]	139 nM		
3-(2-Fluorophenyl)propyl (2S)-1-(3,3-dimethyl-2-oxopentanoyl)-2-pyrrolidinecarbothioate [Compound 57]	57 nM		
3-(3-Chlorophenyl)propyl (2S)-1-(3,3-dimethyl-2-oxopentanoyl)-2-pyrrolidinecarbothioate [Compound 54]	37 nM		
3-(3-Fluorophenyl)propyl 1-(3,3-dimethyl-2-oxopentanoyl)-2-piperidinecarbothioate [Compound 64]	163 nM		
3-(3-Fluorophenyl)propyl (2S)-1-(3,3-dimethyl-2-oxopentanoyl)-2-pyrrolidinecarbothioate [Compound 58]	79 nM		
3-(3-Pyridyl)-1-propyl (2S)-1-(2-cyclohexyl-1,2-dioxoethyl)-2-pyrrolidinecarbothioate [Compound 35]	62 nM		
3-(para-Methoxyphenyl)-1-propyl 1-(2-phenyl-1,2-dioxoethyl)piperidine-2-carbothioate [Compound 43]	259 nM		
3-Phenyl-1-propyl 1-(3,3-dimethyl-1,2-dioxobutyl)-2-piperidinecarbothioate [Compound 29]	59 nM		
3-Phenyl-1-propyl (2S)-1-(2-cyclohexyl-1,2-dioxoethyl)-2-pyrrolidinecarbothioate [Compound 32]	362 nM		
3-Phenylpropyl 1-(3,3-dimethyl-2-oxopentanoyl)-2-piperidinecarbothioate [Compound 60]	90 nM		
4,4-Di(para-fluorophenyl)butyl 1-(3,3-dimethyl-2-oxopentanoyl)-2-pyrrolidinecarbothioate [Compound 46]	757 nM		
4-Phenyl-1-butyl 1-(1,2-dioxo-3,3-dimethylbutyl)-2-piperidinecarbothioate [Compound 39]	347 nM		
4-Phenyl-1-butyl (2S)-1-(2-cyclohexyl-1,2-dioxoethyl)-2-pyrrolidinecarbothioate [Compound 33]	1700 nM		

Molecule	Ki [1]	RT 97 + RGC axon density 14 days after ON transaction (36 ON axons rescued) [2]	Clearance [3]
4-Phenyl-1-butyl (2S)-1-(3,3-dimethyl-1,2-dioxopentyl)-2-pyrrolidinecarbothioate [Compound 34]	34 nM		
4-Phenylbutyl 1-(3,3-dimethyl-2-oxopentanoyl)-2-piperidinecarbothioate [Compound 59]	962 nM		
O=C(SCCCc1ccccc1)[C@@H]1CCCN1C(=O)NC12CC3CC(CC(C3)C1)C2 [B]		100.0% ±5.2% SEM	
O=C(SCCCc1ccccc1)[C@@H]1CCCN1S(=O)(=O)Cc1ccccc1 [C]		60.4% ±3.1% SEM	31.1 µL/min
CCC(C)(C)C(=O)C(=O)N1CCC[C@H]1C(=O)CCCCc1ccccc1 [Compound 1, (2S)-3,3-dimethyl-1-[2-(5-phenylpentanoyl)pyrrolidinyl]pentane-1,2-dione]	31 nM		
CC(C)(C)C(=O)C(=O)N1CCC[C@H]1C(=O)CCCCc1ccccc1 [Compound 3, (2S)-2-(1-oxo-5-phenyl)-pentyl-1-(3,3-dimethyl-1,2-dioxobutyl)pyrrolidine]	85 nM		
CCC(C)(C)C(=O)C(=O)N1CCCC1C(=O)SCc1csc2ccccc12 (stereo not shown) [Compound 11]	299 nM		
CCC(C)(C)C(=O)C(=O)N1CCCC[C@H]1C(=O)SCC(c1ccccc1)c1ccccc1 [Compound 49, 2,2-Diphenylethyl (2S)-1-(3,3-dimethyl-2-oxopentanoyl)-2-piperidinecarbothicate]	1330 nM		
O=C(OCCCc1ccccc1)[C@@H]1CCCCN1S(=O)(=O)Cc1ccccc1 [D]		58.4% ±6.4% SEM	
CCC(C)(C)C(=O)C(=O)N1CCCC[C@H]1C(=O)OC(CCc1ccccc1)CCc1ccccc1 [E]		56.6% ±9.4% SEM	41.8 µL/min
CCC(C)(C)C(=O)C(=O)N1CCS[C@H]1C(=O)OCCCc1cccnc1 [F]		55.1% ±5.9% SEM	
CCC(C)(C)C(=O)C(=O)N1CCCC[C@H]1C(=O)O [G]		34.0% ±4.8% SEM	
CCC(C)(C)C(=O)C(=O)N1CCCC[C@H]1C(N)=O [H]		30.3% ±8.0% SEM	
O=C(OCCCc1cccnc1)[C@@H]1CCCN1C(=S)NC1CCCCC1 [I]		23.8% ±5.3 SEM	8.0 µL/min
CCC(C)(C)C(=O)C(=O)N1CCC[C@H]1C(=O)CCCCc1cccnc1 [J]		15.8% ±4.8% SEM	1.5 µL/min
CCC(C)(C)C(=O)C(=O)N1CCCC[C@H]1C(=O)SCCC(c1ccccc1)c1ccccc1 [K]		13.0% ±4.2% SEM	4.5 µL/min
CCC(C)(C)C(=O)C(=O)N1CCC[C@H]1C(=O)O [L]		7.8% ±3.0% SEM	5.2 µL/min
CCC(C)(C)C(=O)C(=O)N1CCC[C@H]1C(=O)SCCC(c1ccccc1)c1ccccc1 [M]		−6.3% +3.9% SEM	12.5 µL/min
CN(C)C(=O)N1CCC[C@H]1C(=O)SCCCc1ccccc1 [N]			21.9 µL/min
